Key:
[1] = intravenous formulation in neonates; cited from earlier work
[2] = Excipient-free formulation: reconstitution with water for injection and dilution in infusion bags; format: physicochemical
Experimental: 0.3164 g of letermovir sodium trihydrate salt was directly weighed into a washed, sterilized and dried 20R glass vial. […] Six vials were prepared accordingly. The vials were stoppered and crimp capped.
14 ml of water for injection were added to each 20R vial containing 280 mg of Letermovir free base resulting in concentration of 20 mg/ml. Water for injection was added after removal of the flip-off disk from the vial by using a 20-ml disposable syringe plus a 20G needle of 40 mm length.
The content of the vial was carefully homogenized by gentle manual rotation. In parallel, 2 empty infusion bags were filled with 288 ml of each parenteral admixture diluents (Ringer's lactate, 0.9% saline solution and 5% dextrose solution, respectively) by using a 50-ml syringe and a Mini-Spike. 12 ml of the content of the vial was withdrawn by using a 20-ml disposable syringe plus a 20G needle of 40 mm length. The total volume of 12 ml was directly injected into the diluent containing infusion bag. After the injection, the content of the bag was carefully homogenized by gentle manual rotation. Two independent preparations of each diluent were used, i.e., in total 6 infusion bags were prepared. Following, the prepared infusion bags were put on storage at room temperature (protected from light) and another sample was analyzed after 24 hours (T24 h).

Row | Structure (SMILES) | PDE (permissible daily exposure) [1] [mg/day] | pH ([2]; other two diluents (0.9% saline solution, 5% dextrose solution)) | precipitation based on visual inspection ([2]; over 24 hours at room temperature, Ringer's lactate, 0.9% saline, 5% dextrose) | pH ([2]; solution reconstituted with Ringer's lactate, no pH adjustment)
1 | OC[C@H]1O[C@@H](O[C@H]2[C@H](O)[C@@H](O)C(O)O[C@@H]2CO)[C@H](O)[C@@H](O)[C@H]1O (stereo partly drawn) [Lactose] | 5.7 | – | – | –
2 | OC[C@@H](O)[C@@H](O)[C@H](O)[C@H](O)CO [Mannitol] | 75 | – | – | –
3 | OC[C@H]1O[C@H](O[C@H]2O[C@H](CO)[C@@H](O)[C@H](O)[C@H]2O)[C@H](O)[C@@H](O)[C@@H]1O [Trehalose] | 25.8 | – | – | –
4 | COc1cccc(N2CCN(C3=Nc4c(F)cccc4[C@H](CC(=O)[O-])N3c3cc(C(F)(F)F)ccc3OC)CC2)c1.[Na+] [letermovir sodium trihydrate salt, Sodium 2-[(4S)-8-fluoro-2-[4-(3-methoxyphenyl)piperazin-1-yl]-3-[2-methoxy-5-(trifluoromethyl)phenyl]-4H-quinazolin-4-yl]acetate] | – | 8.0 | None of the reconstituted formulations precipitated | 7.8

Source: patent US20230095980A1, “Sodium 2-[(4S)-8-fluoro-2-[4-(3-methoxyphenyl)piperazin-1-yl]-3-[2-methoxy-5-(trifluoromethyl)phenyl]-4H-quinazolin-4-yl]acetate and pharmaceutical compositions thereof” (AIC246 AG & Co. KG, priority 2020, published 2023)
